# Experimental data: patent publication US11638716B2, “Compounds, compositions, and methods for the treatment of disease” (F-star Therapeutics, Inc., priority 2017, dated 2023)
# Legend:
# [1] = biological target: T1, human wtSTING-CTD (with SUMO tag) (Homo sapiens, UniProt Q86WV6, H232R); assay: Isothermal calorimetry against human wtSTING-CTD; format: binding; details: 25° C., 1.5 mM compound titrated against 132.5 μM protein
# T1 construct: human wtSTING-CTD (with SUMO tag)
# Experimental: Isothermal Calorimetry was carried out on a MicroCal Itc200 at 25° C.
# STING CTD = biological target: T2, STING CTD (Homo sapiens, UniProt Q86WV6, H232R); assay: Thermal shift assay with STING CTD; format: binding; details: 0.1 mg/mL STING CTD, compound 2 mM to 0.05 uM
# T2 construct: Thermal shift assay was conducted with 0.1 mg/mL of STING CTD
# T2 sequence (Q86WV6 135-379 H232R): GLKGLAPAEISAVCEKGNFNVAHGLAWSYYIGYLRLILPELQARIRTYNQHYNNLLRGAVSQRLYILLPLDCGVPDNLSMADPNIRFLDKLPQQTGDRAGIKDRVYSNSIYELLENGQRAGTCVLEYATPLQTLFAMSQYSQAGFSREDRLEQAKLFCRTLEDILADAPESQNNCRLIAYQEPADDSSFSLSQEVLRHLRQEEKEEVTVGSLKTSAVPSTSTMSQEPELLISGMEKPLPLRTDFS
# Experimental: Fluorescence as a function of temperature was recorded using a Real Time PCR machine (Thermo Fisher). The temperature gradient was performed in the range of 25-80° C. with a ramp of 0.2° C. over the course of 60 minutes. Data was analyzed with the Thermal Shift Software (Thermo Fisher) and DSF analysis. The Derivative model was used to fit the fluorescence data to obtain the midpoint temperature for the thermal protein unfolding transition (Tm) using the curve-fitting software Prism.
# ISGs/type I IFN response = ISGs/type I IFN response in normal Balb/C mice after intravenous dosing; format: in vivo, mouse; details: intravenously 9 mg/kg
# NF-kB = NF-kB signaling reporter (SEAP), compound 4 and diastereomers; format: cell-based; details: FIG. 34B, 20 hours
# Experimental: Cells were treated with various concentrations of compound 4 and two of its diastereomers (4-A and 4-B), or DMSO control for 20 hours. Cells stably expressed one or both of the reporters used to measure NF-kB activity. NF-kB activity was determined by measure SEAP levels at 620-655 nm. % induction was calculated from fold change in luminescence/absorbance compared to DMSO treated sample.
# IRF = IRF signaling reporter (Lucia), compound 4 and diastereomers; format: cell-based; details: 20 hours
# Experimental: (§1) Cells were treated with various concentrations of compound 3 and two of its diastereomers (4-A and 4-B), or DMSO control for 20 hours. Cells stably expressed one or both of the reporters used to measure IRF activity. IRF activity was assessed using QUANTI-luc to measure levels of Lucia. % induction was calculated from fold change in luminescence/absorbance compared to DMSO treated sample.
# as §1, with “4” for “3”
# R232H variant of hSTING = R232H variant of hSTING (Homo sapiens, UniProt Q86WV6); assay: IRF/NF-kB reporter cells, STING R232H variant; format: cell-based; details: 20 hours
# Chain of R232H variant of hSTING (Q86WV6 whole entry, stated change not applied): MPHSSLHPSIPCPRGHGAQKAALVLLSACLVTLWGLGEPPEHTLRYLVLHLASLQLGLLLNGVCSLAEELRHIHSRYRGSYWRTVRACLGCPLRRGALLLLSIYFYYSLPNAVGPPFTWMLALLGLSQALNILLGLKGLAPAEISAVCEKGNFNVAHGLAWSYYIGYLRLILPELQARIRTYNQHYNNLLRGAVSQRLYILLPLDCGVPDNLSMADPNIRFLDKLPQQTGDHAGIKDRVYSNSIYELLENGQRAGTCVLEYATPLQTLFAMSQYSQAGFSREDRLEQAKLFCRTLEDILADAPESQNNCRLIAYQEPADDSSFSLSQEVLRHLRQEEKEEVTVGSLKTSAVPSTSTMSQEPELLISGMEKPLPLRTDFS
# Experimental: (§2) FIG. 27 depicts cells stably expressing both or either one of the reporters to measure IRF and NF-kB activity were treated with a range of concentrations of compound 4 or DMSO control for 20 hours. IRF activity was assessed using QUANTI-luc to measure levels of Lucia and NF-kB activity was determined by measure SEAP levels at 620-655 nm. % induction was calculated from fold change in luminescence/absorbance compared to DMSO treated sample. EC50 values are generated by curve fit in Xlfit.
# (§3) Cells grown in complete media were treated with various concentrations of a compound of the disclosure or DMSO control. Dual cells carry both secreted embryonic alkaline phosphatase (SEAP) reporter gene under the control of an IFN-β minimal promoter fused to five copies of the NF-kB consensus transcriptional response element to measure NF-kB activity and Lucia reporter gene under the control of an ISG54 minimal promoter to measure IRF activity. After 20 h incubation, IRF activity was assessed using QUANTI-luc to measure levels of Lucia and NF-kB activity was determined by measure SEAP levels at 620-655 nm. % induction was calculated from fold change in luminescence/absorbance compared to DMSO treated sample. EC50 values are generated by curve fit in Xlfit.
# MYD88 knock out cells = assay: IRF/NF-kB reporter activity in MYD88 knock out cells; format: cell-based; details: 20 hours
# Experimental: as §2, §3
# THP1-STING KO cells = assay: IRF activity in THP1-STING KO cells; format: cell-based; details: compound alone, 20 hours
# RIG-I = assay: IRF/NF-kB reporter cells testing the role of RIG-I; format: cell-based; details: 20 hours
# Experimental: as §2, with “28” for “27”
# T1 sequence (Q86WV6 135-379 H232R): as the sequence (Q86WV6 135-379 H232R) above
SMILES,binding to STING (isothermal calorimetry) [1],binding to STING (thermal shift) (STING CTD),upregulation of ISGs/type I IFN response (ISGs/type I IFN response),NF-kB signaling induction (NF-kB),IRF signaling induction (IRF; FIG. 34A),IRF signaling induction (IRF; FIG. 34C),activity against R232H variant of hSTING (R232H variant of hSTING),activity in MYD88 knock out cells (MYD88 knock out cells),IRF activity in THP1-STING KO cells (THP1-STING KO cells),involvement of RIG-I in the mechanism of action (RIG-I)
N.N.Nc1ncnc2c1ncn2[C@@H]1O[C@@H]2COP(=O)(S)O[C@@H]3[C@H](F)[C@@H](COP(=O)(O)O[C@H]2[C@H]1F)O[C@H]3n1ccc(=O)[nH]c1=O (stereo partly shown) [Compound 3],bind to STING with high affinity,bind to STING with high affinity,strongly induced upregulation,,,,,,,
CCCCCCCCCCOc1ccc(C(=O)Oc2ccc(CSP3(=O)OC[C@H]4O[C@@H](n5cnc6c(N)ncnc65)[C@H](F)[C@@H]4OP(=O)(O)OC[C@H]4O[C@@H](n5ccc(=O)[nH]c5=O)[C@H](O3)[C@@H]4F)cc2)cc1 (stereo partly shown) [Compound 4],,,,efficacious in inducing NF-kB signaling,efficacious in inducing IRF signaling,efficacious in inducing IRF signaling,possess activity,possess activity,did not induced IRF activity,not implicated
